In assay [1] the target is Glyceraldehyde-3-phosphate dehydrogenase (Homo sapiens, UniProt P04406).
In assay [2] the target is Glucose-6-phosphate 1-dehydrogenase (Homo sapiens, UniProt P11413). The assay can be described thus: human G6PD enzyme inhibitors, dose response, selectivity assay for P. falciparum G6PD inhibitor project, biochemical, fluorescence (AID 504792). The assay is classed as functional.
Assay [3] deals with Eukaryotic translation initiation factor 4E (Mus musculus, UniProt P63073). The assay can be described thus: eIF4E–eIF4G protein interaction inhibitors, dose response, biochemical, TR-FRET (AID 855).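 Note: potency for disrupting eIF4E binding to eIF4GI seen as loss of FRET.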 The assay is classed as functional.
Chain of Eukaryotic translation initiation factor 4E (P63073 whole entry): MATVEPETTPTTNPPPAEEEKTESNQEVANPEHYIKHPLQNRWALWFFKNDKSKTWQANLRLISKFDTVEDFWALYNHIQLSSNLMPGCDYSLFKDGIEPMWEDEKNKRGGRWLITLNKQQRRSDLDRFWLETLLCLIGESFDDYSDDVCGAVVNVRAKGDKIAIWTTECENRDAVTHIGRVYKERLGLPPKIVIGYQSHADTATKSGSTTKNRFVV
In the next assay the target is Genome polyprotein (dengue virus type 2, UniProt P29990). The assay can be described thus: Dengue-2 NS5 methyltransferase inhibitors, primary screen, biochemical, confirmation dose response (AID 588689). The assay is classed as functional.
Chain of Genome polyprotein (P29990 2492-3391 limits assumed): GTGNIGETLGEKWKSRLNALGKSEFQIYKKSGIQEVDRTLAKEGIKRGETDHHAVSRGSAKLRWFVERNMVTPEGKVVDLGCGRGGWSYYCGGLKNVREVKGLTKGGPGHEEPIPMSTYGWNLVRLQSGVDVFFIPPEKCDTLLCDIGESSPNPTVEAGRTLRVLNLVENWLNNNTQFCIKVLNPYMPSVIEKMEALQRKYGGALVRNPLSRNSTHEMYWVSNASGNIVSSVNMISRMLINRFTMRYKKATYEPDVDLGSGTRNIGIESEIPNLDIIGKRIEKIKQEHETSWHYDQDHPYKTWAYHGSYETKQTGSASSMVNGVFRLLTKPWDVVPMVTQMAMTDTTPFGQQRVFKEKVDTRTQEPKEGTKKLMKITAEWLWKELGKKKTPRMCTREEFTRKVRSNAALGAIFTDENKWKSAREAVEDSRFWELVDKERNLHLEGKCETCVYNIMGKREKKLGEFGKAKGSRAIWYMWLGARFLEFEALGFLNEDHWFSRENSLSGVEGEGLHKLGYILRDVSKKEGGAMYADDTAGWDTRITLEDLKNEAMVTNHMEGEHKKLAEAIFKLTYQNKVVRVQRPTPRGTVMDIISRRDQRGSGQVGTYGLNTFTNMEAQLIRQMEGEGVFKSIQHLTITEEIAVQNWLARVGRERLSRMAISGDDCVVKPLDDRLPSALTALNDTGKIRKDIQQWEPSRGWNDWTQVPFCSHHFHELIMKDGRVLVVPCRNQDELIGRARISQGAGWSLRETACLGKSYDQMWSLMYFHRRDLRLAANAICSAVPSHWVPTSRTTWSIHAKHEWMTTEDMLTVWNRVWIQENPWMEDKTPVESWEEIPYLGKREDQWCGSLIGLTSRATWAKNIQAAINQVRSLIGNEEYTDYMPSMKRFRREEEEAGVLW
Another assay has as its system Vero. The assay can be described thus: Vero cell cytotoxicity, cytotoxicity control for flavivirus capping enzyme inhibitors (AID 588742). The assay is classed as functional. The note with it: Chlorocebus sabaeus.
Assay [4] is described as follows: cells. The assay is classed as functional, cell-based.
A short description of assay [5]: cytotoxicity toward NIH3T3 fibroblasts, dose response, counter-screen, cell-based, ATP luminescence, mouse fibroblasts (AID 2010).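 Note: cells exposed to compound for about 90 hours before reading.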 It is filed as functional. (Counterscreens check selectivity or assay interference.)
Assay [6] in a line: NIH-3T3 fibroblast cytotoxicity, dose response, cytotoxicity control, cell-based, fluorescence, Alamar Blue, secondary assay (AID 2327).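 Note: NIH-3T3 mouse fibroblasts cultured with fluconazole at 8 µg/mL.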 The assay is classed as functional. (Alamar Blue is a resazurin reagent that responds to reducing activity.)
Assay [7] in a line: cells. It is filed as functional, cell-based. This is another data set of the same source.
The test system of the next assay is INS1. The assay can be described thus: beta cell apoptosis inhibitors, cytokine rescue, dose response, luminescence, retest (AID 449756).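 Note: cell death triggered by IL-1 beta plus TNF-alpha plus IFN-gamma mixture; protective hits raise ATP signal compared with cytokine alone wells.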 It is filed as functional, cell-based. The note with it: Rattus norvegicus.
A short description of assay [8]: inhibitors of intracellular T. cruzi replication, confirmation, NIH3T3 host cells, beta-gal luminescence (AID 2044).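 Note: intracellular parasites grown in NIH/3T3 mouse fibroblasts as host cells; luminescent beta-galactosidase reporter signal from transgenic T. cruzi replicating inside host cells; inhibitors lower the luminescence signal.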 It is filed as functional, cell-based.
A short description of assay [9]: HepG2 cell cytotoxicity, dose response, cytotoxicity control for non-replicating M. tuberculosis project (AID 489018). The note with it: Mycobacterium tuberculosis. It is filed as functional.
The nature of assay [10]: cells. The assay is classed as functional.
The nature of assay [11]: THP-1 cell cytotoxicity, dose response, cytotoxicity control for non-replicating M. tuberculosis project (AID 489025). It is filed as functional.
The target in assay [12] is T1, DNA repair protein RAD52 homolog (Homo sapiens, UniProt P43351).
T1 sequence (P43351 whole entry): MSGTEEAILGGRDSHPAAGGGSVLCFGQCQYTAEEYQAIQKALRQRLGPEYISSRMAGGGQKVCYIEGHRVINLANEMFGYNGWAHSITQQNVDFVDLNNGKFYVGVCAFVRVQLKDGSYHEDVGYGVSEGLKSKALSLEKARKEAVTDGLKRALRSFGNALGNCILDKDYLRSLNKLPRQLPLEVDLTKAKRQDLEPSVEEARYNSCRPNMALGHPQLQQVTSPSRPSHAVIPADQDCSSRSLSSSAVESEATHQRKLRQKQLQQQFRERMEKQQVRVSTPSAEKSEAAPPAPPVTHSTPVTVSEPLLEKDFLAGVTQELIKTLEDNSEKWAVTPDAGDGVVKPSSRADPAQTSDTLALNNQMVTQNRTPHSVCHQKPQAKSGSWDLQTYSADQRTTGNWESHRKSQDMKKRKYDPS
The assay is classed as functional, biochemical.

Assay [13] can be described thus: Vero E6 cell cytotoxicity, dose response, cytotoxicity control for non-replicating M. tuberculosis project, secondary assay (AID 492998). It is filed as functional, VeroE6. To be noted: Vero C1008.
A short description of assay [14]: Luminescence Cell-Based Dose Confirmation HTS to Identify Activators of 5'UTR Stem-Loop Driven Alpha-Synuclein mRNA Translation in H4 Neuroglioblastoma Cells. [Related pubchem assays: 1829 (Project Summary), 1814 (Primary HTS)]. It is filed as functional.
Assay [15] in a line: Luminescence Cell-Based Dose Response HTS to Identify Activators of Luciferase Translation or Activity in H4 […] Cells. [Related pubchem assays: 1829 (Project Summary), 1814 (Primary HTS)]. The assay is classed as functional.
The subject of the next assay is H4. The assay can be described thus: Luminescence Cell-Based Dose Response HTS to Identify Activators of 5'UTR Stem-Loop Driven Prion Protein mRNA Translation in H4 Neuroglioblastoma Cells. [Related pubchem assays: 1829 (Project Summary), 1814 (Primary HTS)]. It is filed as functional. The note with it: Homo sapiens.
The next assay deals with T2, Aminopeptidase N (Plasmodium falciparum FcB1/Columbia, UniProt O96935).
T2 sequence (O96935 whole entry): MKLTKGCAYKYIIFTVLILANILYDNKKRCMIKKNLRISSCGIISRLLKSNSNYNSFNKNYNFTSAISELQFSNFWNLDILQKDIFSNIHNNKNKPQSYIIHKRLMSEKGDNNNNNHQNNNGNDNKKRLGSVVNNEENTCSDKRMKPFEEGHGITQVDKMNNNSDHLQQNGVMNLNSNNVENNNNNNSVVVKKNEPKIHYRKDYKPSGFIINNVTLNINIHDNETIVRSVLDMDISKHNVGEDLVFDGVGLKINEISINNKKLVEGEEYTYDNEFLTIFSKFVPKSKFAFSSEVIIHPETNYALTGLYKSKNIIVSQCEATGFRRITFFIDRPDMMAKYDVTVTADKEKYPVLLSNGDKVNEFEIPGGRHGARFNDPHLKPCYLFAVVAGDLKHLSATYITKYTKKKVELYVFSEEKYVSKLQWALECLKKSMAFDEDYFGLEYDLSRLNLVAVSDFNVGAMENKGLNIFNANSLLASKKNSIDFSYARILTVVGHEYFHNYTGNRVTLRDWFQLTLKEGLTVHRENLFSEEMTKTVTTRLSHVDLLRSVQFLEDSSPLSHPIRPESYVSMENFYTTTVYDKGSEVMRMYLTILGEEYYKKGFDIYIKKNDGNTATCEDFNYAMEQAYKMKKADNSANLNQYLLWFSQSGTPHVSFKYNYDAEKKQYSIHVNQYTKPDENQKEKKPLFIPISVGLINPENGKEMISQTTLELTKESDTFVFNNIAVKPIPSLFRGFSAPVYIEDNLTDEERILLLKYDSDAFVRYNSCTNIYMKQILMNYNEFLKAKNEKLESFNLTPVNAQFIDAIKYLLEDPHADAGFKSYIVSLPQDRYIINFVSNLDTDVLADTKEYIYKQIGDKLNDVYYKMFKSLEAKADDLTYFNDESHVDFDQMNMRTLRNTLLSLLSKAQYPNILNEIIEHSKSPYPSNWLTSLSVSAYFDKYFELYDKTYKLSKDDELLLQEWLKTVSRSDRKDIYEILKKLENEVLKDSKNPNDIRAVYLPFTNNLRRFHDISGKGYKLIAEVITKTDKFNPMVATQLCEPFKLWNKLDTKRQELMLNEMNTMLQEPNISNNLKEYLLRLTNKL
The assay can be described thus: P. falciparum M1AAP inhibitors, biochemical, fluorogenic H-Leu-NHMec substrate, 1536-well (AID 1445). Also on record: species or system Plasmodium falciparum 3D7, 3D7.

The subject of assay [16] is Streptococcus sp. 'group A'. The assay can be described thus: growth inhibition of control SK(-) GAS strain, dose response, counter-screen for streptokinase expression inhibitor project, luminescence, kanamycin, BacTiterGlo, confirmation (AID 1900). The assay is classed as functional, organism-based.
For another assay, the system named is Streptococcus. The assay can be described thus: Group A Streptococcus viability loss, dose response, counter-screen for streptokinase expression inhibitor project, luminescence, BacTiterGlo (AID 1915).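 Note: potency for reduction of bacterial viability or growth.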 The assay is classed as functional, organism-based.
The nature of assay [17]: C. albicans growth with fluconazole, confirmation, fluorescence, retest (AID 2467). It is filed as functional, cell-based.
For assay [18], the target named is T3, Microphthalmia-associated transcription factor (Homo sapiens, UniProt O75030).
T3 sequence (O75030 whole entry): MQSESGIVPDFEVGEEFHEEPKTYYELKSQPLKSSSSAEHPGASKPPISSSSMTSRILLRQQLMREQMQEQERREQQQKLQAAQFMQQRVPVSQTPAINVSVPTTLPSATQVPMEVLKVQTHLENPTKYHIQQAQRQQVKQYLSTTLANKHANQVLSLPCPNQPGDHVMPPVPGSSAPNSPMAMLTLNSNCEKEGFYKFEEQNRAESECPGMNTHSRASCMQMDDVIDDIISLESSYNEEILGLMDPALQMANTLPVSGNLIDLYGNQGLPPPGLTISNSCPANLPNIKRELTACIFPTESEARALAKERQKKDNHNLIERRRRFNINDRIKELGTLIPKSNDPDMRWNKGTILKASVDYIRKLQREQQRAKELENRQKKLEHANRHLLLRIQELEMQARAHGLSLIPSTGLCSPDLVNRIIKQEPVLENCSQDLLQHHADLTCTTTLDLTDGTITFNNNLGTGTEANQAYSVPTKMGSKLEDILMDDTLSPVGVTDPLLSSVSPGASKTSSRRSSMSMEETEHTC
The assay can be described thus: TRPM1 promoter luciferase signal decrease, dose response, MITF inhibitor project, cell-based, SK-MEL-5, cherry-picked, set 3 (AID 493073).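 Note: SK-MEL-5 melanoma cells with luciferase driven by the MITF target TRPM1 promoter.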 It is filed as functional.

For the next assay, the target named is Cytochrome P450 3A4 (Homo sapiens, UniProt P08684).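 Note: CYP3A4 tested as one member of a cytochrome P450 panel screen.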
Chain of Cytochrome P450 3A4 (P08684 whole entry): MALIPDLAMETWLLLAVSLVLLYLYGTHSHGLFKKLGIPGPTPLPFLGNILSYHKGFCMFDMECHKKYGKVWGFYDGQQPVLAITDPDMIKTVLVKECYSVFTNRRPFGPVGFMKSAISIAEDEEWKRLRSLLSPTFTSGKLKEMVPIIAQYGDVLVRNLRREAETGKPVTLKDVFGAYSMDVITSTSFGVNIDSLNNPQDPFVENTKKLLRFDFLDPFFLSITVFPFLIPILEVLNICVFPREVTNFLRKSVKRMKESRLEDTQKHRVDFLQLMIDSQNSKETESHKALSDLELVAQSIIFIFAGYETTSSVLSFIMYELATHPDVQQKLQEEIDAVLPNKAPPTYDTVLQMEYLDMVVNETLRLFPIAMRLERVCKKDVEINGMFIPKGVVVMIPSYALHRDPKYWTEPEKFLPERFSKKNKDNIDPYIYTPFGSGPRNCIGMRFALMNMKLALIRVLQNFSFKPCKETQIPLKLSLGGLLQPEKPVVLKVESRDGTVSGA
The next assay addresses T4, Cytochrome P450 1A2 (Homo sapiens, UniProt P05177).
T4 sequence (P05177 whole entry): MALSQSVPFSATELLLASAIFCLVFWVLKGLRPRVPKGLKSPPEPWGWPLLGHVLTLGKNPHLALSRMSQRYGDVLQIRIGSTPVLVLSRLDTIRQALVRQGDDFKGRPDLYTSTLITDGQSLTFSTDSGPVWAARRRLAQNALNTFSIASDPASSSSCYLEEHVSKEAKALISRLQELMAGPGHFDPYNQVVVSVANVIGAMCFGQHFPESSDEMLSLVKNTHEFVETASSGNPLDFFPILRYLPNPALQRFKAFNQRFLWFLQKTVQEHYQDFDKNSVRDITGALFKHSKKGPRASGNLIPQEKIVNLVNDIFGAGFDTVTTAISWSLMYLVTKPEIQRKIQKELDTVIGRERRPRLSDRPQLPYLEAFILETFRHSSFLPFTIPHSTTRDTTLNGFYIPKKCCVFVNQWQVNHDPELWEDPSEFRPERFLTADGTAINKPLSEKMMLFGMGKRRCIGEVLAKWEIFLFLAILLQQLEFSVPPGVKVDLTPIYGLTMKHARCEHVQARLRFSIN

Activity calls are given as the source filed them.

For orientation: IC50 means the concentration that inhibits the measured activity by half. Usually CC50 stands for the concentration giving 50% cytotoxicity. In general, EC50 refers to the midpoint of the concentration-response curve. One may read the AC50 as the midpoint of the concentration-response curve, whichever way the signal moves.

Chain of Glyceraldehyde-3-phosphate dehydrogenase (P04406 whole entry): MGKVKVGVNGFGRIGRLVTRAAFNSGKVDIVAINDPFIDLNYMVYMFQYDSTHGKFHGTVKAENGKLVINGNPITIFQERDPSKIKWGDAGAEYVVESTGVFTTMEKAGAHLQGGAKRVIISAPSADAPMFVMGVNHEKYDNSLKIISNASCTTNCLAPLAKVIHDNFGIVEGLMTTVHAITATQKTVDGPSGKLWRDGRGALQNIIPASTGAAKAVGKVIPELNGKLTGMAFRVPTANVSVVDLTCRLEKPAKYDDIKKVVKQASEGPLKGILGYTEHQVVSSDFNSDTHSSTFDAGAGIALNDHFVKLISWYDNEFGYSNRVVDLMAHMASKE
Chain of Glucose-6-phosphate 1-dehydrogenase (P11413 whole entry): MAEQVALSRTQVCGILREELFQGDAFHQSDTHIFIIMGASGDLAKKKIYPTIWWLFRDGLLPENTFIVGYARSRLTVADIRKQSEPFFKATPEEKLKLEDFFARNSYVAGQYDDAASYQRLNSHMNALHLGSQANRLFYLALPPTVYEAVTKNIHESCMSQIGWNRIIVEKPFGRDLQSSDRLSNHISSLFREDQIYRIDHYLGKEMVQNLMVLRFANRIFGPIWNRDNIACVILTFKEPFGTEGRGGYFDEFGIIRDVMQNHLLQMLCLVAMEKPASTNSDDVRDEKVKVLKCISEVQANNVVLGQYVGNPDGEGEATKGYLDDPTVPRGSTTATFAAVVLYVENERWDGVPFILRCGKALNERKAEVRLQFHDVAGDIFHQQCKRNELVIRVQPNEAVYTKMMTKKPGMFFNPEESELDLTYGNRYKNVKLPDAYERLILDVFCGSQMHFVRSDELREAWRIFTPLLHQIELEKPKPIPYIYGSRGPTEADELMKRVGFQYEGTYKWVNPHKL

On to `O=C1C(Cl)=C(N2CCN(Cc3ccccc3)CC2)C(=O)N1c1ccc(C(F)(F)F)cc1`, for which, in [1], the IC50 was > 50 µM (inconclusive).
As to `COc1cc(CNc2ccc(N3CCCC3)cc2)ccc1OCc1ccccc1F`, the figures for the IC50 (in assay [2]; in [3]; on Genome polyprotein) were > 80 µM (inactive), > 64 µM (inactive) and 54.2 µM (active), respectively. The CC50 in the assay with Vero was > 40 µM (active).
As to `Cn1c(N=NO)nc2ccccc21`, the EC50 in “cells [4]” is > 350 µM (not active); in assay [5], < 6 µM (inconclusive); in assay [6] it was > 150 µM (inactive); in “cells [7]”, 11.3 µM (active); in assay [8], 0.778 µM (active). For the same compound, the AC50 in the assay on INS1 is 0.932 µM (active).
Consider `CN(C)CC/C=C1\c2ccccc2Sc2cc(F)c(Cl)cc21`, for which the CC50 in [9] is > 20 µM (active); in assay [11], 17 µM (active); in assay [13], > 20 µM (active). Further, the IC50 in the assay “cells [10]” is 20.8 µM (active). Moreover, in assay [12], the AC50 is 15.1 µM (active).
Turning to `C/C(=N\NC(=O)c1nc2ccccn2c1C)c1ccco1`, the EC50 was 14.4 µM (active) in assay [14], > 120 µM (not active) in assay [15] and 15.7 µM (active) with H4.
In the same order, the values of `CCc1nccn1CCC(=O)N1CCCC(N2CCN(c3cccc(Cl)c3)CC2)C1` (stereo not given) are > 120 µM (not active), 25.5 µM (active) and 16.3 µM (active).
Turning to `Cc1cc(C(=O)Nc2ccc(O)c(C(=O)O)c2)c(C)o1`, the IC50 in [1] was > 100 µM (not active).
With `Cc1nc(C)c(C(=O)N/N=C/c2cc(Br)ccc2O)s1`, the EC50 in the assay “cells [4]” was > 350 µM (not active); in assay [16], 2.35 µM (active); in [6] it was > 150 µM (inactive); in “cells [7]”, 99.3 µM (active); in the assay with Streptococcus, 8.73 µM (active); in [17], 1.34 µM (active). Also, the IC50 on Aminopeptidase N is 12.9 µM (active). In addition, the AC50 in assay [18] is 3.66 µM (active); in the assay with INS1, 2.63 µM (active).
Regarding `O=C(CSc1nnc2ccc3ccccc3n12)N1CCOCC1`, the EC50 in [14] was > 120 µM (not active); in assay [15], 14.6 µM (active); in the assay with H4, 14.4 µM (inconclusive).
As to `Cc1ccc(Oc2ncc(CN3CCOCC3)s2)cc1`, the figures for the EC50 (in assay [14]; in [15]; in the assay on H4) were 13.1 µM (active), 13.1 µM (active) and 40.4 µM (active), respectively. For the same compound, the AC50 is 20 µM (inconclusive) at Cytochrome P450 3A4 and 22.4 µM (inconclusive) at Cytochrome P450 1A2.

The record behind these values is ChEMBL document CHEMBL1201862, “PubChem BioAssay data set” (2004).
